Data from publication PMC7150796 (Viruses, 2020).
Entries after “also recorded” stand apart in the source; their conditions may differ. Where two headings read alike, the source gives them in different places.

Key:
rZIKV-ZsGreen [1] = assay: microbe, parasite or virus in culture; type: cell-based, Zika virus; conditions: 24 h; for EC50 / EC90: Zika virus, Vero; for EC50: read-out: Inhibition Efficacy EC50; for EC90: read-out: Inhibition Efficacy EC90; for Inhibition Efficacy EC50 / Inhibition Efficacy EC90: rZIKV-ZsGreen, Vero B4 cells, inhibition of ZsGreen expression, highest concentration 100 µM
[2] = Resazurin cell viability (cell toxicity) assay; conditions: African green monkey
[3] = tested on: wt ZIKV African lineage (MR766, Uganda strain); assay: Plaque inhibition assay, wt ZIKV African lineage; type: cell-based, Zika virus; conditions: 2.5 µM, Vero B4 cells, 4 days
rZIKV-ZsGreen [4] = assay: Time of drug addition assay
TBEV = type: cell-based, tick-borne encephalitis virus; conditions: MOI 0.1, Vero B4, 24 hpi
YFV = type: cell-based, yellow fever virus; conditions: MOI 0.1, Vero B4, 48 hpi
WNV = assay: Focus-forming assay, WNV; type: cell-based, West Nile virus
[5] = tested on: wt ZIKV Asian lineage (BeH819015, Brazil strain); assay: Plaque inhibition assay, wt ZIKV Asian lineage; conditions: Vero B4 cells, 4 days
JEV = assay: Focus-forming assay, JEV; type: cell-based, Japanese encephalitis virus
[6] = tested on: two wt ZIKV lineages, Asian and African; type: cell-based, Zika virus; conditions: 2.5 µM
DENV2 = assay: Focus-forming assay, DENV2; type: cell-based, dengue virus type 2
ZIKV [7] = assay: Focus-forming assay, ZIKV; type: cell-based, Zika virus; conditions: MOI 0.1, Vero B4, 24 hpi
ZIKV [8] = conditions: ref 40 (Lei Cai et al.); read-out: EC50 against ZIKV; cited from earlier work
in vitro = conditions: African green monkey

Row | Structure (SMILES) | EC50 (rZIKV-ZsGreen [1]) | EC90 (rZIKV-ZsGreen [1]) | viability at 24 h, 25 µM [2] | viability at 24 h, 50 µM [2] | viability at 24 h, 100 µM [2] | viral titer reduction (WNV) | viral titer reduction (JEV) | viral titer reduction (DENV2) | Inhibition Efficacy EC50 (rZIKV-ZsGreen [1]) | Inhibition Efficacy EC90 (rZIKV-ZsGreen [1]) | further results
1 | O=C(Nc1ccccc1C(=O)Nc1ccccc1C(=O)O)c1ccccc1 [Benzavir-1, 2-{[2-(benzoylamino)benzoyl]amino}-benzoic acid] | 3 ± 0.1 µM | 3.3 ± 0.1 µM | 98.8 ± 3.4% | 88.3 ± 1.4% | 88.1 ± 2.1% | – | – | – | – | – | –
2 | O=C(Nc1cc(F)c(F)cc1C(=O)Nc1ccccc1C(=O)O)c1ccccc1F [Benzavir-2, 2-[4,5-Difluoro-2-(2-fluorobenzoylamino)-benzoylamino]benzoic acid] | 0.8 ± 0.1 µM | 1.2 ± 0.3 µM | 100 ± 1.8% | 96.8 ± 0.6% | 94.3 ± 1.8% | 2.2 × 10^4 fold | 7.5 × 10^3 fold | 5.6 × 10^4 fold | – | – | reduction of plaque formation [3]: 94%; inhibitory effect, time of addition (rZIKV-ZsGreen [4]; 10 µM added at 2–4 h post-infection, read 24 h): most pronounced; inhibitory effect, time of addition (rZIKV-ZsGreen [4]; 10 µM, binding and entry steps (0–2 h), read 24 h): less affected; inhibitory effect, time of addition (rZIKV-ZsGreen [4]; 10 µM, later time-points post-infection, read 24 h): less inhibition; inhibitory effect, time of addition (rZIKV-ZsGreen [4]; 10 µM, pre-incubation prior to infection (−2 h), compared to 2–4 h): much lower; viral titer reduction (TBEV; benzavir-2 2.5 µM): 7.5 × 10^3 fold; viral titer reduction (YFV; benzavir-2 2.5 µM): 1.5 × 10^3 fold; reduction of plaque formation ([5]; 2.5 µM, Asian lineage): 88%; plaque formation, dose-dependent ([5]; benzavir-2 from 20 to 0.6 µM): significant reduction of plaque formation at all applied concentrations; CPE in cells infected with progeny virus from treated cells ([6]; day 2 post-progeny virus transfer): minor CPE; plaque formation in cells infected with progeny virus from treated cells ([6]; day 4, crystal violet): only a few visible plaques; viral titer reduction (ZIKV [7]; benzavir-2 2.5 µM): 1.0 × 10^3 fold
3 | CC(C)(C)C(=O)Nc1cc(F)c(F)cc1C(=O)Nc1ccccc1C(=O)O [Compound 17d] | – | – | 105.1 ± 0.1% | 106 ± 4.2% | 104.9 ± 0.9% | – | – | – | no antiviral activity; also recorded: Not achieved | Not achieved | –
4 | O=C(Nc1cc(Cl)ccc1C(=O)Nc1ccccc1C(=O)O)c1ccccc1F [Compound 35f] | 6.1 ± 1.4 µM | 14.9 ± 0.9 µM | 105 ± 5% | 96.5 ± 3.7% | 92.1 ± 3.9% | – | – | – | – | – | –
5 | NC(=O)c1nc(F)c[nH]c1=O [Favipiravir, reference compound] | – | – | – | – | – | – | – | – | Not achieved | Not achieved | Inhibition Efficacy EC50 (rZIKV-ZsGreen [1]; listed as favipiravir): no antiviral activity; EC50 (ZIKV [8]): 111 ± 13.1 µM; viability at 24 h, 25 µM ([2]; Vero B4 cells): 97.4 ± 0.7%; viability at 24 h, 50 µM ([2]; Vero B4 cells): 95 ± 1.4%; viability at 24 h, 100 µM ([2]; Vero B4 cells): 97.9 ± 2.2%
6 | NC(=O)c1ncn([C@@H]2O[C@H](CO)[C@@H](O)[C@H]2O)n1 [Ribavirin, reference compound] | 45.5 ± 13.5 µM | 114 ± 18 µM | – | – | – | no significant activity | no significant activity | 1.1 × 10^1 fold | – | – | viability at 24 h, 25 µM (in vitro): 96 ± 1%; viability at 24 h, 50 µM (in vitro): 95 ± 2.8%; viability at 24 h, 100 µM (in vitro): 93.5 ± 3.4%; viral titer reduction (TBEV; ribavirin 50 µM): 1.2 × 10^1 fold; viral titer reduction (YFV; ribavirin 50 µM): 0.9 × 10^1 fold; plaque formation, dose-dependent ([5]; ribavirin from 200 to 6.3 µM): only showed inhibition of plaque formation at 200 µM; viral titer reduction (ZIKV [7]; ribavirin 50 µM): 1.0 × 10^1 fold
